Measurements from PubChem BioAssay (NCI).
Where “and” joins values, the source holds several entries; their conditions need not be identical. Identical values can stand only once.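 Cells were grown in 96-well plates and exposed to each compound for 48 hours at five concentrations; endpoints were interpolated linearly between bracketing concentrations, or set to the highest concentration if not reached. The concentration for 50% growth inhibition is given as GI50. TGI is the concentration that stops growth completely.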

Tests used:
Assay in all cases: NCI anticancer screen, dose series, 48 h
NCI-H226 lung = system: NCI-H226 lung
HL-60(TB) leukemia = system: HL-60(TB) leukemia
SK-MEL-2 melanoma = system: SK-MEL-2 melanoma
HOP-62 NSCLC = system: HOP-62 NSCLC
SNB-75 CNS = system: SNB-75 CNS
NCI-H522 lung = system: NCI-H522 lung
CAKI-1 renal = system: CAKI-1 renal
SF-268 CNS = system: SF-268 CNS
SNB-19 CNS = system: SNB-19 CNS
HCC-2998 colon = system: HCC-2998 colon

Row | Structure (SMILES) | GI50 (NCI-H226 lung) | TGI (NCI-H226 lung) | GI50 (HL-60(TB) leukemia) | TGI (HL-60(TB) leukemia) | GI50 (SK-MEL-2 melanoma) | TGI (SK-MEL-2 melanoma) | GI50 (HOP-62 NSCLC) | TGI (HOP-62 NSCLC) | GI50 (SNB-75 CNS) | TGI (SNB-75 CNS) | GI50 (NCI-H522 lung) | TGI (NCI-H522 lung) | GI50 (CAKI-1 renal) | TGI (CAKI-1 renal) | GI50 (SF-268 CNS) | TGI (SF-268 CNS) | GI50 (SNB-19 CNS) | TGI (SNB-19 CNS) | GI50 (HCC-2998 colon) | TGI (HCC-2998 colon)
1 | CCOc1ccc2nc(SCc3nc4n(n3)S(=O)(=O)c3ccccc3N4C)sc2c1 | > 100000 nM | > 100 µM | 82700 nM | > 100 µM | > 100000 nM | > 100 µM | 50800 nM | > 100 µM | 28800 nM | 83.8 µM | 86400 nM | > 100 µM | > 100000 nM | > 100 µM | 57600 nM | > 100 µM | > 100000 nM | > 100 µM |  | 
2 | Cc1ccc(-c2csc(/N=C3\C(=O)Nc4ccccc43)n2)cc1 | 1780 nM | 3.71 µM |  |  | 1630 nM | 3.69 µM |  |  | 1170 nM | 2.85 µM | 1510 nM | 3.49 µM |  |  | 1520 nM | 3.5 µM | 1520 nM | 3.19 µM | 1600 nM | 3.21 µM
3 | CCC[CH2][Sn]([CH2]CCC)([CH2]CCC)[O]c1ccc(Cl)cc1Cl |  |  | 129 nM | 0.415 µM | 152 nM | 0.295 µM | 146 nM | 0.294 µM | 152 nM | 0.445 µM | 149 nM | 0.297 µM | 87.8 nM | 0.258 µM | 128 nM | 0.301 µM | 175 nM | 0.344 µM | 94.9 nM | 0.226 µM
4 | O=C(O)CCCCCCC[C@H]1S[C@H]1CCCCCCO |  |  |  | > 100 µM |  | > 100 µM |  | > 100 µM |  |  |  |  |  | > 100 µM |  | > 100 µM |  | > 100 µM |  | > 100 µM
5 | CN[C@H]1C=C[C@@H]2/C=C(C)/C=C/[C@@H](C)[C@H]([C@H](C)[C@H](O)[C@@H](C)NC(C)=O)OC(=O)/C=C/C=C(C)\C=C\[C@]2(C)C1 | 7.43 nM | 10.3 µM | 33.2 nM | 35.7 µM |  | 27.9 µM | 7.65 nM | > 49 µM | 4.9 nM | 6.08 µM | 45 nM and 22.9 nM | 13.1 µM |  |  | 82.1 nM and 42 nM | > 49 µM | 79.5 nM and 71.8 nM | > 49 µM | 5500 nM | > 49 µM
6 | C=C(COC(C)=O)CC(OC(C)=O)c1ccccc1 (stereo not given) |  | > 100 µM |  | > 100 µM |  | > 100 µM |  | > 100 µM |  | > 100 µM |  | > 100 µM |  |  |  | > 100 µM |  | > 100 µM |  | > 100 µM
7 | Cc1ccc(SC(CCC(Sc2ccc(C)cc2)Sc2ccc(C)cc2)Sc2ccc(C)cc2)cc1 |  |  |  | > 100 µM |  | > 100 µM |  | > 100 µM |  | > 100 µM |  | > 100 µM |  | > 100 µM |  | > 100 µM |  | > 100 µM |  | 
8 | C=C1C(=O)O[C@@H]2C[C@@H](C)[C@@H]3C=CC(=O)[C@@]3(C)[C@@H](OC(=O)CC(=O)O[C@H]3[C@@H]4C(=C)C(=O)O[C@@H]4C[C@@H](C)[C@@H]4C=CC(=O)[C@]43C)[C@H]12 |  | 0.3 µM |  |  |  | 0.224 µM |  | 1.18 µM |  | 1.54 µM |  |  |  | 0.111 µM |  | 0.374 µM |  | 1.73 µM |  | 0.303 µM
9 | COc1ccc2c(C)cc(N/N=C/c3ccc(OC)c4ccccc34)nc2c1 |  | 29.6 µM |  | 49.3 µM |  | 37.2 µM |  | 34.4 µM |  | 42.2 µM |  | 26.7 µM |  | 26.9 µM |  | 32.6 µM |  | 41.9 µM |  | 
10 | COc1cccc(-c2nc3sccn3c2-c2ccnc(NCCCNS(=O)(=O)c3cccc(F)c3)c2)c1 | 2380 nM | 8.38 µM | 1840 nM | 4.91 µM | 2180 nM | 5.44 µM | 2830 nM | 29.1 µM | 1730 nM | 5.47 µM | 2110 nM | 8.41 µM |  |  | 3260 nM | > 100 µM | 5600 nM | > 100 µM | 5120 nM | > 100 µM
11 | O=C1Nc2ccccc2C12CCNC2Cc1ccccc1 (stereo not given) |  |  |  | > 100 µM |  | > 100 µM |  | > 100 µM |  | > 100 µM |  |  |  | > 100 µM |  | > 100 µM |  | > 100 µM |  | > 100 µM
12 | Cc1ccc(S(=O)(=O)NC(=O)C2C(=O)CC3(CCCCC3)CC2=O)cc1 |  | > 100 µM |  | 65.8 µM |  |  |  | > 100 µM |  | > 100 µM |  | 59.9 µM |  | 65.9 µM |  | > 100 µM |  | > 100 µM |  | 
13 | COc1cc(NC(N)=NCCC(C)(C)Oc2ccc(C(F)(F)F)cc2)ncc1C#N |  |  |  |  | 1790 nM | 3.27 µM | 1750 nM | 3.2 µM | 1550 nM | 3.02 µM | 1470 nM | 2.9 µM | 1550 nM | 2.9 µM | 1720 nM | 3.31 µM | 1840 nM | 3.3 µM | 1580 nM | 3.01 µM
14 | CCC12CCCN(Cc3ccccc3)C1c1c([nH]c3ccccc13)C(C(=O)OC)C2 (stereo not given) |  |  |  | > 10 µM |  |  |  | > 10 µM |  | > 10 µM |  | > 10 µM |  | > 10 µM |  | > 10 µM |  | > 10 µM |  | > 10 µM
15 | CC1CCC2(CC1)NN=c1s/c(=C\c3ccc(O)cc3)c(=O)n1N2 (stereo not given) |  | > 100 µM |  | > 100 µM |  |  |  | > 100 µM |  | > 100 µM |  | > 100 µM |  |  |  | > 100 µM |  | > 100 µM |  | > 100 µM
16 | Nc1ccccc1C(=O)CC1OC(=O)c2ccccc21 (stereo not given) |  | > 100 µM |  | > 100 µM |  | 88 µM |  | > 100 µM |  | > 100 µM |  | > 100 µM |  |  |  | > 100 µM |  | > 100 µM |  | 
17 | CC(C)(C)C(=O)c1c(C(F)(F)F)n([O-])c2ccccc2[n+]1=O | 840 nM | 2.48 µM | 204 nM | 1.08 µM |  | 3.23 µM | 1470 nM | 2.94 µM | 460 nM | 2.05 µM | 407 nM | 0.924 µM | 282 nM | 0.811 µM | 549 nM | 1.75 µM | 931 nM | 2.91 µM |  | 
18 | CCCCCC[N+](C)(C)Cc1ccc(C[N+](C)(C)CCCCCC)cc1 |  | 20.4 µM |  |  |  | 5.15 µM |  | 8.23 µM |  | 10.8 µM |  |  |  | 14.6 µM |  | > 100 µM |  | 67.4 µM |  | 27.9 µM
19 | CC(C)=CC(=O)C/C(=N\NC(N)=S)C(=O)Nc1ccc(Cl)cc1 |  | > 100 µM |  | > 100 µM |  | > 100 µM |  |  |  | > 100 µM |  |  |  | > 100 µM |  | > 100 µM |  | > 100 µM |  | > 100 µM
